Measurements as given in patent publication US6461859B1, “Enzymatic oxidation process for desulfurization of fossil fuels” (Instituto Mexicano del Petroleo, priority 1999, dated 2002).

Legend:
[1] = target: T1, poly(ethylene)glycol-modified cytochrome c (PEG-Cyt) (Equus caballus, UniProt P00004); assay: Oxidation of low-sulfur diesel oil enriched with dibenzothiophene (gas chromatogram); format: biochemical; settings: desulfurized diesel oil enriched with 10 g/l DBT, PEG-Cyt and hydrogen peroxide, GC FID/FPD
T1 construct: made in house
T1 sequence (P00004 2-105 limits assumed): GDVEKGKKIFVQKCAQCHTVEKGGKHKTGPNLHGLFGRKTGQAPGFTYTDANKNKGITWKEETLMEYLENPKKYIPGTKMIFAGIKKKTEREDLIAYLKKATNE
From the text: Desulfurized diesel oil (<0.05% of sulfur) is enriched with 10 g/l of DBT and treat with poly(ethylene)glycol-modified cytochrome c (PEG-Cyt) and hydrogen peroxide. […] DBT sulfoxide is an unstable compound which may be oxidized to form DBT sulfone. Cytochrome c is a biocatalyst able to oxidize thiophenes and organosulfides [Vazquez-Duhalt et al Enzyme Microb. Technol. 15 (1993) 494] and has several advantages when compared with other hemoenzymes. […] Technol. 15 (1993) 494; Vazquez-Duhalt et al Enzyme Microb. Technol. 15 (1993) 936.]. In addition, this biocatalyst can be modified by site-directed mutagenesis [E. Torres et al. Enzyme Microb. Technol. 17 (1995) 1014.] and by chemical modification [Tinoco and Vazquez-Duhalt. Enzyme Microb. Technol. 22 (1998) 8.] to improve both its catalytic activity and range of substrates. PEG-modified enzymes are soluble in organic solvents and their activity in organic solvents is increased because of the reduction of mass transfer limitations in the system [Vazquez-Duhalt et al. Enzyme Microb. Technol. 14 (1992) 837].

[2] = Biocatalytic oxidation of primary diesel fuel followed by distillation; settings: chloroperoxidase treatment of primary diesel oil followed by distillation
Description: After biocatalytic oxidation of the fossil fuel a second process of separation of oxidized organosulfur compounds is envisaged. Because the boiling points of sulfur compounds are incersed after biocatlytic oxidation to sulfoxides, it is possible to remove them by a single distillation. Oxidized sulfur compounds can be removed by decreasing the final distillation point. When primary diesel fuel containing 1.6% sulfur is distilled in order to obtain a 100% distillation at a temperature 50° C. lower than the original fraction, it produces a diesel fuel containing 1.27% of sulfur and 83% of the original hydrocarbons. […] Thus, a biocatalytic treatment of primary diesel oil with chloroperoxidase from Caldariomyces fumago, followed by a distillation is able to reduce the sulfur content by 80%.

Molecule	biocatalytic transformation of DBT [1]	reduction of sulfur content [2] [%]
c1ccc2c(c1)sc1ccccc12 [Dibenzothiophene]	transformed to DBT sulfoxide	
chloroperoxidase: chloroperoxidase (EC 1.11.1.10) from Caldariomyces fumago, hemoprotein biocatalyst (protein, UniProt P04963 21-319, looked up) Chloroperoxidase: QEPGSGIGYPYDNNTLPYVAPGPTDSRAPCPALNALANHGYIPHDGRAISRETLQNAFLNHMGIANSVIELALTNAFVVCEYVTGSDCGDSLVNLTLLAEPHAFEHDHSFSRKDYKQGVANSNDFIDNRNFDAETFQTSLDVVAGKTHFDYADMNEIRLQRESLSNELDFPGWFTESKPIQNVESGFIFALVSDFNLPDNDENPLVRIDWWKYWFTNESFPYHLGWHPPSPAREIEFVTSASSAVLAASVTSTPSSLPSGAIGPGAEAVPLSFASTMTPFLLATNAPYYAQDPTLGPND		80
